Consider 2 substances from patent US20230158108A1 (priority 2020, published 2023).

Entries after “also recorded” stand apart in the source; their conditions may differ. Read-outs that look alike come from different tables or passages of the source.

The test system of assay [1] is PMNs isolated from healthy adults. Kind of assay: NET formation in healthy adult PMNs induced by COVID-19 patient plasma (confocal microscopy, cell-free DNA fluorescence assay). It counts as cell-based, human. The settings on record: peptide 1 nM, 1-hour preincubation, undiluted COVID-19 plasma 2 hours.
The next assay has as its system healthy neutrophils. Format: cell-based, human. As to conditions: healthy neutrophils pretreated.
Assay [2] relates to LPS-induced acute lung inflammation. It counts as in vivo. The settings on record: LPS-induced acute lung inflammation model; nNIF given IP. The source says:
Thus, nNIF can reduce NETs similar to an FDA approved drug, such as dexamethasone.

The test system of a further assay is experimental sepsis. The settings on record: models of experimental sepsis; cited from earlier work.
In assay [3] the test system is PMNs isolated from healthy adults. Description: poly (I:C)-induced NETosis in PMNs from healthy adults. It counts as cell-based, human. As to conditions: poly (I:C) 1 μg/mL, 2 hours.
In assay [4] the test system is PMNs isolated from COVID-19 patients. Description: poly (I:C)-induced NETosis in PMNs from COVID-19 patients. It counts as cell-based, human. The settings on record: poly (I:C) 1 μg/mL, 2 hours.

For the substance “KAVLTIDEKGTEAAGAMFLEAIPMSIPPEVKFNKPFVFLMIEQNTKSPLFMGKVVNPTQK (listed as Homo sapiens) [nNIF]”, the “NETosis induced in vitro by COVID-19 plasma” value in assay [1] is recorded as “significantly decreases NETosis; also recorded: inhibits NETs induced by COVID-19 plasma”. For the same substance, the “Inhibition of COVID-19 plasma induced NETosis” value with healthy neutrophils (high-inducing pooled plasma (>3-fold induction)) was “clearly observed”. Besides, in the assay on healthy neutrophils (medium-inducing pooled plasma (2-3 fold induction)), the “Inhibition of COVID-19 plasma induced NETosis” value is “clearly observed”. In addition, in assay [2], the “In vivo efficacy: NETs or cells undergoing early NETosis (cytospin)” value is “very good efficacy”. Moreover, in the assay on experimental sepsis, the Disease severity result was “decreased disease severity”, the NETosis entry is “decrease in NETosis” and the Survival result is recorded as “improved survival”.
Consider poly (I:C), for which, in assay [3], the “NETosis induction in vitro” value was “induces NETosis”. The “Increase in NETosis compared to elevated baseline levels” value in assay [4] is reported as 2 fold.
